Measured values reported in patent publication US20060063143A1, “Immortalized hypothalamic neuronal cell lines” (priority 2002, published 2006).

Tested on: immortalized hypothalamic subclones N-7, N-22, N-29
Experiment: Functional cAMP response of immortalized subclones to peptide stimulation (RIA)
Type: cell-based, mouse
Conditions: cell lines N-7, N-22 and N-29; 10^-7 M (100 nM) peptide, 15 minutes, IBMX 100 μM
Excerpt: The onset of mood disorders, such as depression or anxiety, involve the altered function of multiple loci in the brain that regulate emotionality, memory and motivation (41-43). However, the inability to describe a cellular and molecular aetiology of these conditions likely reflects, in part, the existence of critical neurological circuits not yet understood. A novel family of neuropeptides on the carboxy-terminus of the teneurin transmembrane proteins (32, 44) is implicated in neuronal communication. In one embodiment, they modulate stress responses and anxiety (data not shown) and likely play a role in some psychiatric illnesses. In another embodiment, they are implicated as modulators of cell cycle and cell proliferation. These sequences are called teneurin C-terminal-associated peptides (TCAP-1 to 4) [SEQ. ID NOs 1-9]. These peptides may also have a cleavable amidation signal at the C-terminus, such as “GRR” or “GKR”. […]
The functional cAMP response of the immortalized subclones to TCAP peptide stimulation was also assessed and the results are shown in FIG. 18. […] N-7, N-22 and N-29 were analyzed for the cAMP response to peptide stimulation. […] Cells were scraped from the plate and kept at −20° C. until the amounts of intracellular cAMP were determined in triplicate by RIA (Biotechnologies Inc., Stoughton, Mass.) according to the manufacturer's instructions.

rtTCAP-3: teneurin C-terminal-associated peptide, rainbow trout TCAP-3, SEQ ID NO 9 plus amidation signal GKR; stress-regulating peptide provided by Dr. D. Lovejoy (QLLSGRKVLGYDGYYVLSIEQYPELADSANNIQFLRQSEI; C-terminal GKR amidation signal; Trout TCAP3)
TCAP responsiveness of cell lines (cAMP response): responsive
